Results taken from patent US20240224999A1, “METABOLIC INHIBITORS FOR CONTROLLING BIOFILM” (MC (US) 3 LLC, priority 2021, published 2024).
Entries after “also recorded” stand apart in the source; their conditions may differ.

Key:
[1] = system: Desulfovibrio alaskensis 14563; test: MBEC biofilm efficacy, Log (Growth) by enumeration; assay type: cell-based; details: for Log (Growth): biofilm; for efficacy in controlling biofilm formation (in words): tested individually, standard temperature and pressure
Method: (§1) Strains of commonly found bacteria were used for testing the efficacy of the compounds, viz. Desulfovibrio alaskensis and Desulfovibrio vulgaris. Media for the cultures was also prepared by using a standard method. The cultures were aseptically used and incubated under anaerobic conditions. They were plated with an MBEC (minimal biofilm eradication concentration) lid, to allow for biofilm growth. […] Then the plates were rinsed, sonicated and enumerated. These enumerations were grown for 5-days for the readings.
(§2) A lyophilized Desulfovibrio alaskensis 14563, Desulfovibrio vulgaris 29579 pure cultures received from ATCC were resuspended individually in 500 ul of MB 1250. Aseptically, the content was transferred to a 5-mL tube of MB1250 medium. The cultures were incubated in an anaerobic chamber at 30° C. for 72 hrs. Subsequently, an individual stock culture with a final concentration of 25% glycerol were prepared by adding equal volumes of culture and 50% glycerol. 1 ml of the cultures were then transferred to 2-ml cryogenic vials and stored at −80° C. The purity of the stock cultures was evaluated through PCR, by amplifying the 16S rDNA region, and thus, it was verified that the original ATCC sample was a pure culture.
(§3) 48-hour cultures of ATCC Desulfovibrio alaskensis 14563 and Desulfovibrio vulgaris 29579 were prepared in an anaerobic chamber. Each culture was prepared as a 1:10 culture by taking 1 milliliter (mL) of a pure culture and inoculating 9 milliliters (mL) of fresh SRB2-LA media. Prepared cultures were incubated at 30° C. and further diluted 1:100 in SRB2-LA media after incubation. They were grown for another 24 hours then diluted 1:10. The 1:10 dilution was plated with an MBEC (minimal biofilm eradication concentration) lid, which would allow for biofilm growth.
(§4) Treatment plates were prepared by adding 180 μL of fresh phosphate buffer amended with 10% SRB2-LA media to each well. These wells were then dosed with the compounds of interest with a ppm range of 200 to 1 PPM. Edge wells were not used due to their inherent variability and evaporation of the media. Each experiment was done with at least three replicates for different treatments and non-treatment controls. After incubation of the MBEC plate, the MBEC lid was removed and added to a rinse plate containing phosphate buffer and 10% SRB2-LA. The lid was rinsed for 30 seconds then added to the treatment plate. The MBEC lids had 6 hours to 3 days of exposure time. After targeted exposure time, the plates were rinsed, sonicated, and enumerated. The rinse was done for 30 seconds in 10% SRB2-LA with phosphate buffer. Following the rinse, the lid was added to a plate with the same media and buffer mix and the plate was sonicated for 5 minutes. After five minutes, the lid was discarded, and each row of the plate was enumerated. These enumerations were grown for 5 days before being read.

[2] = system: Desulfovibrio vulgaris 29579; test: MBEC biofilm efficacy, Log (Growth) by enumeration; assay type: cell-based; details: testing time 2 days
Method: as §1, §2, §3, §4

Question: What does the source list for `O=C(CN1C(=O)c2cccc3cccc(c23)C1=O)NO` [Compound C1]?
Answer: Log (Growth) ([1]; testing time 6 hours, 1 PPM): 4; Log (Growth) ([1]; testing time 6 hours, 5 PPM): 2; Log (Growth) ([1]; testing time 6 hours, 10 PPM): 1; Log (Growth) ([1]; testing time 6 hours, 25 PPM): 1; Log (Growth) ([1]; testing time 6 hours, 50 PPM): 1; Log (Growth) ([1]; testing time 18 hours, 1 PPM): 1; Log (Growth) ([1]; testing time 18 hours, 5 PPM): 0; Log (Growth) ([1]; testing time 18 hours, 10 PPM): 0; Log (Growth) ([1]; testing time 18 hours, 25 PPM): 0; Log (Growth) ([1]; testing time 18 hours, 50 PPM): 0; Log (Growth) ([1]; testing time 2 days, 1 PPM): 0; Log (Growth) ([1]; testing time 2 days, 2.5 PPM): 0; Log (Growth) ([1]; testing time 2 days, 10 PPM): 0; Log (Growth) ([1]; testing time 2 days, 15 PPM): 0; Log (Growth) ([1]; testing time 2 days, 20 PPM): 0; Log (Growth) ([1]; testing time 2 days, 25 PPM): 0; Log (Growth) ([1]; testing time 2 days, 40 PPM): 0; Log (Growth) ([1]; testing time 2 days, 50 PPM): 0; Log (Growth) ([1]; testing time 3 days, 50 PPM): 0; Log (Growth) ([1]; testing time 3 days, 100 PPM): 0; Log (Growth) ([1]; testing time 3 days, 200 PPM): 0; killing of the microorganism strain Desulfovibrio alaskensis (in words) ([1]; comparative testing against two commercial products, metabolic inhibition): completely killing; efficacy in controlling biofilm formation (in words) [1]: significant activity in controlling biofilms; also recorded: highest efficacy; Log (Growth) ([2]; 5 PPM): 4; Log (Growth) ([2]; 25 PPM): 1; Log (Growth) ([2]; 50 PPM): 1; Log (Growth) ([2]; 100 PPM): 0; Log (Growth) ([2]; 200 PPM): 1

Question: Which “Log (Growth)” value ([1]; testing time 2 days, 5 PPM) does the source give for `O=C(CCCN1C(=O)c2cccc3cccc(c23)C1=O)NO` [Compound C12] here?
Answer: 1

Question: And the “Log (Growth)” value ([1]; testing time 2 days, 25 PPM)?
Answer: 0

Question: And the “Log (Growth)” value ([1]; testing time 2 days, 50 PPM)?
Answer: 1

Question: And the “Log (Growth)” value ([1]; testing time 2 days, 100 PPM)?
Answer: 0.3

Question: And the “Log (Growth)” value ([1]; testing time 2 days, 200 PPM)?
Answer: 0

Question: And the “efficacy in controlling biofilm formation (in words)” value [1]?
Answer: significant activity in controlling biofilms; also recorded: exhibited efficacy

Question: Which “Log (Growth)” value ([1]; testing time 2 days, 5 PPM) does the source give for `CCCCCCCC(=O)NO` [Compound C16] here?
Answer: 5

Question: What about the “Log (Growth)” value ([1]; testing time 2 days, 25 PPM) of the same compound?
Answer: 5

Question: And the “Log (Growth)” value ([1]; testing time 2 days, 50 PPM)?
Answer: 3

Question: What about the “Log (Growth)” value ([1]; testing time 2 days, 100 PPM) of the same compound?
Answer: 1

Question: What about the “Log (Growth)” value ([1]; testing time 2 days, 200 PPM) of the same compound?
Answer: 0

Question: What about the “efficacy in controlling biofilm formation (in words)” value [1] of the same compound?
Answer: significant activity in controlling biofilms; also recorded: exhibited efficacy
